Source: ChEMBL document CHEMBL5029152, “Discovery of Highly Potent and Selective IRAK1 Degraders to Probe Scaffolding Functions of IRAK1 in ABC DLBCL” (J Med Chem, 2021)
Activity calls are given as the source filed them. No cut-off for these calls is given here.

What was measured:
[1] = biological target: T1, Interleukin-1 receptor-associated kinase 1 (Homo sapiens, UniProt P51617); test: Induction of IRAK1 degradation in human Toledo cells assessed as decrease in protein abundance at 1 uM measured after 6 hrs by quantitative mass spectrometry; type: cell-based
Target sequence in this assay (P51617 whole entry, looked up): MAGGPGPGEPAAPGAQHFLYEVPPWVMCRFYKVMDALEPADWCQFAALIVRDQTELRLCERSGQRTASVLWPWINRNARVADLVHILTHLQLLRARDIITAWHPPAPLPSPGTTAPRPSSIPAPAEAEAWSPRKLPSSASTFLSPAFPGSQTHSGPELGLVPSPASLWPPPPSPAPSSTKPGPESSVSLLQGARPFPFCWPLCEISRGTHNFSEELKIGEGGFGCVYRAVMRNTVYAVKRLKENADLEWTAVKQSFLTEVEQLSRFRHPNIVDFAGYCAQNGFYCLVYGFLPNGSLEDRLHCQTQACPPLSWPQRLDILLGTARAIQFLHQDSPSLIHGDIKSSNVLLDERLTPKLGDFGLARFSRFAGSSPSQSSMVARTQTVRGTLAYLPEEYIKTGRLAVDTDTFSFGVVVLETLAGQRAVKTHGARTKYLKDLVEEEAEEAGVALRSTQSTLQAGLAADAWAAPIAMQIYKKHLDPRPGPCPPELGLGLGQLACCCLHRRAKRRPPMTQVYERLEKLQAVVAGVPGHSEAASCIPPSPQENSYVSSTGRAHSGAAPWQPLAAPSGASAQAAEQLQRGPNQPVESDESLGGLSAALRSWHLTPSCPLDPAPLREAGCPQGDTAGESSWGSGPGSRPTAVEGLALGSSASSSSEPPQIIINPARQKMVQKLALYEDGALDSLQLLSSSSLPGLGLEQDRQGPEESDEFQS

[2] = biological target: T2, Cyclin-G-associated kinase (Homo sapiens) (UniProt O14976); test: Induction of GAK degradation in human Toledo cells assessed as decrease in protein abundance at 1 uM measured after 6 hrs by quantitative mass spectrometry; type: cell-based
T2 sequence (whole entry): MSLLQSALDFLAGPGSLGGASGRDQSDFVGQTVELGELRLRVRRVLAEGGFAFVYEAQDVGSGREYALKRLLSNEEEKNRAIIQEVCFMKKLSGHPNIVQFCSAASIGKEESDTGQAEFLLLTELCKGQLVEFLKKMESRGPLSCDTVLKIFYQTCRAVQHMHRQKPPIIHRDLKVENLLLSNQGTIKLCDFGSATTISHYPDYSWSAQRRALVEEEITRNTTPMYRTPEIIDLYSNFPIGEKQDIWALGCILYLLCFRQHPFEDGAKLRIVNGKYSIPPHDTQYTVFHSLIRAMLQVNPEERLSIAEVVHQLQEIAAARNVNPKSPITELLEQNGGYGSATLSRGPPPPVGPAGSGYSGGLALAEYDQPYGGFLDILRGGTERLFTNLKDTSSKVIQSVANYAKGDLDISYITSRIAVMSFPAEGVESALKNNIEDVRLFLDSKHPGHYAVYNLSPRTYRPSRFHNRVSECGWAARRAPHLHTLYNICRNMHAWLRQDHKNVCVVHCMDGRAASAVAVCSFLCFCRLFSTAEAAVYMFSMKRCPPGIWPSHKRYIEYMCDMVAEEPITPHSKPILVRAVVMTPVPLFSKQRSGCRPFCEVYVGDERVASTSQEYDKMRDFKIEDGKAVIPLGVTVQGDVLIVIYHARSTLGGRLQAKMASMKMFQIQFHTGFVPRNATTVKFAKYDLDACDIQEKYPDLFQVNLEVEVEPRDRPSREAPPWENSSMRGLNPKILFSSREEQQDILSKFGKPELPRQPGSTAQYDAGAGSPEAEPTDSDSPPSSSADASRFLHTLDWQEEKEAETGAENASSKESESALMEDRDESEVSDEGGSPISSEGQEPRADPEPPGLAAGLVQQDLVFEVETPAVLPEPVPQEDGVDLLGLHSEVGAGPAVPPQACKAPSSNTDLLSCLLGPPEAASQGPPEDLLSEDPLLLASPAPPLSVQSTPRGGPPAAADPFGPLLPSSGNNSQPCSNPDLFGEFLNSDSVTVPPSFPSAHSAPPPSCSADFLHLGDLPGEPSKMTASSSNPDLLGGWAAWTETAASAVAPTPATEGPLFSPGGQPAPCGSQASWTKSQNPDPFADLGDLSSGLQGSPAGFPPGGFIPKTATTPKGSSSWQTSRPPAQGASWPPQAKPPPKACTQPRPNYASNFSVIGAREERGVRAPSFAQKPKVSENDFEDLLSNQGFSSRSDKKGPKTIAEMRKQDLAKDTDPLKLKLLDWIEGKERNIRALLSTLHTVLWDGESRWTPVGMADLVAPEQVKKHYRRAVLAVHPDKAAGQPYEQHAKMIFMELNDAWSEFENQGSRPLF

[3] = biological target: NmrA-like family domain-containing protein 1 (Homo sapiens) (UniProt Q9HBL8); test: Induction of NMRAL1 degradation in human Toledo cells assessed as decrease in protein abundance at 1 uM measured after 6 hrs by quantitative mass spectrometry; type: cell-based
[4] = biological target: T3, von Hippel-Lindau disease tumor suppressor/Interleukin-1 receptor-associated kinase 1 (Homo sapiens, UniProt P51617+P40337); test: Protac activity at IRAK1/VHL E3 ligase in HEK293T cells assessed as induction of IRAK1 degradation at 1 uM measured after 24 hrsin presence of VH298 by Western blot analysis; type: cell-based; details: time 24.0 hrs
Target sequence in this assay (P40337 whole entry, looked up, the tested form may be a part): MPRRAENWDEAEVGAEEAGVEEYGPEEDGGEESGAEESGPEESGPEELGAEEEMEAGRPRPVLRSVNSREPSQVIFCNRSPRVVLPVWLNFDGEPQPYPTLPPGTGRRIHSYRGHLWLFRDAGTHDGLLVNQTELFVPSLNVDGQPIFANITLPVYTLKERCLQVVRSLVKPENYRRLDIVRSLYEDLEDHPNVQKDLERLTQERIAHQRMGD
Target sequence in this assay (P51617 whole entry, looked up, the tested form may be a part): as the sequence (P51617 whole entry, looked up) above

[5] = biological target: BMP-2-inducible protein kinase (Homo sapiens) (UniProt Q9NSY1); test: Inhibition of wild-type human partial length BIKE (S34 to N329 residues) expressed in bacterial expression system at 1 uM by Kinomescan method
[6] = biological target: T1, Interleukin-1 receptor-associated kinase 1; test: Inhibition of IRAK1 in human HBL1 cells assessed as reduction in phosphorylated IKBA level at up to 1 uM measured after 24 hrs by Western blot analysis; type: cell-based; details: dose microM <=1, time 24.0 hrs
Target sequence in this assay (P51617 whole entry, looked up): as above

[7] = biological target: T3, von Hippel-Lindau disease tumor suppressor/Interleukin-1 receptor-associated kinase 1; test: Protac activity at IRAK1/VHL E3 ligase in HEK293T cells assessed as induction of IRAK1 degradation measured after 24 hrs by Western blot analysis; type: cell-based
Target sequence in this assay (P51617 whole entry, the tested form may be a part): as the sequence (P51617 whole entry, looked up) above
Target sequence in this assay (P40337 whole entry, the tested form may be a part): as the sequence (P40337 whole entry, looked up, the tested form may be a part) above

[8] = biological target: T2, Cyclin-G-associated kinase (Homo sapiens); test: Inhibition of wild-type human partial length GAK (G13 to Y338 residues) expressed in bacterial expression system at 1 uM by Kinomescan method relative to control
[9] = biological target: von Hippel-Lindau disease tumor suppressor (Homo sapiens, UniProt P40337); test: Displacement of 5-FAM-labelled DEALA-HypYIPMDDDFQLRSF peptide from VHL (unknown origin) by fluorescence polarization assay
HBL1 = test: Induction of apoptosis in human HBL1 cells assessed as increase in PARP cleavage at up to 1 uM measured after 24 hrs by Western blot analysis; type: functional, cell-based; details: dose microM <=1, time 24.0 hrs
[10] = biological target: T4, Interleukin-1 receptor-associated kinase 4 (Homo sapiens, UniProt Q9NWZ3); test: (§1) Inhibition of full length human N-terminal GST-fusion tagged IRAK4 expressed in baculovirus expression system using FAM-labelled peptide as substrate preincubated for 10 mins followed by substrate addition and further incubated for 1 hr in presence of ATP at Km concentration by caliper mobility shift assay
T4 sequence (Q9NWZ3 whole entry): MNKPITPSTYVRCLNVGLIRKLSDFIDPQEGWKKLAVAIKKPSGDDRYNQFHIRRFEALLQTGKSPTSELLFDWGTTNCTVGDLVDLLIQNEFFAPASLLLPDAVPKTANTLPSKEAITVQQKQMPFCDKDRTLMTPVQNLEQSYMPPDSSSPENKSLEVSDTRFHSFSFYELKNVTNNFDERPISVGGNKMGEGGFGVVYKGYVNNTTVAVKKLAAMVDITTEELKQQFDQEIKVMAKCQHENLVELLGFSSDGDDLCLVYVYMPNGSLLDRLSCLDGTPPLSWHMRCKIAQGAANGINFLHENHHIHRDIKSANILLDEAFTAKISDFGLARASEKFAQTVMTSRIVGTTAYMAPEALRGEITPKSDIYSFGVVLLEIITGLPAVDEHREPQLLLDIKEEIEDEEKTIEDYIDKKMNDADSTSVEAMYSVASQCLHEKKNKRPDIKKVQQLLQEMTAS

[11] = biological target: T1, Interleukin-1 receptor-associated kinase 1; test: as §1, with “truncated” for “full length”, “IRAK1 (194 to 712 residues)” for “IRAK4”
Target sequence in this assay (P51617 whole entry): as the sequence (P51617 whole entry, looked up) above

OCI-Ly10 = test: Cytotoxicity against human OCILY10 cells assessed as reduction in cell viability measured after 12 days by CellTiter-Glo assay; type: functional; details: time 12 day
[12] = biological target: T3, von Hippel-Lindau disease tumor suppressor/Interleukin-1 receptor-associated kinase 1; test: Protac activity at IRAK1/VHL E3 ligase in HEK293T cells assessed as induction of IRAK1 degradation at 10 uM measured after 24 hrs by Western blot analysis relative to control; type: cell-based
Target sequence in this assay (P40337 whole entry, looked up, the tested form may be a part): as the sequence (P40337 whole entry, looked up, the tested form may be a part) above
Target sequence in this assay (P51617 whole entry, looked up, the tested form may be a part): as the sequence (P51617 whole entry, looked up) above

[13] = biological target: T1, Interleukin-1 receptor-associated kinase 1; test: Inhibition of IRAK1 in human HBL1 cells assessed as reduction in total STAT3 level at up to 1 uM measured after 24 hrs by Western blot analysis; type: cell-based; details: dose microM <=1, time 24.0 hrs
Target sequence in this assay (P51617 whole entry, looked up): as above

Chain of von Hippel-Lindau disease tumor suppressor (P40337 whole entry): as the sequence (P40337 whole entry, looked up, the tested form may be a part) above
Chain of NmrA-like family domain-containing protein 1 (Homo sapiens) (Q9HBL8 whole entry, the tested form may be a part): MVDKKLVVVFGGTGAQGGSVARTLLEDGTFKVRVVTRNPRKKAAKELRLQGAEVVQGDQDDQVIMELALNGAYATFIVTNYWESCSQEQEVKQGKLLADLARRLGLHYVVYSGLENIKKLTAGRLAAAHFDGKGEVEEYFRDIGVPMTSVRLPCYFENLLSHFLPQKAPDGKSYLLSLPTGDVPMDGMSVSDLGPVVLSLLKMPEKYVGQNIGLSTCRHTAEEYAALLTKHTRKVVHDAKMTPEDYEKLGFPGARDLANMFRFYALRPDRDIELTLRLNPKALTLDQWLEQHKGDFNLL
Chain of BMP-2-inducible protein kinase (Homo sapiens) (Q9NSY1 whole entry, looked up, the tested form may be a part): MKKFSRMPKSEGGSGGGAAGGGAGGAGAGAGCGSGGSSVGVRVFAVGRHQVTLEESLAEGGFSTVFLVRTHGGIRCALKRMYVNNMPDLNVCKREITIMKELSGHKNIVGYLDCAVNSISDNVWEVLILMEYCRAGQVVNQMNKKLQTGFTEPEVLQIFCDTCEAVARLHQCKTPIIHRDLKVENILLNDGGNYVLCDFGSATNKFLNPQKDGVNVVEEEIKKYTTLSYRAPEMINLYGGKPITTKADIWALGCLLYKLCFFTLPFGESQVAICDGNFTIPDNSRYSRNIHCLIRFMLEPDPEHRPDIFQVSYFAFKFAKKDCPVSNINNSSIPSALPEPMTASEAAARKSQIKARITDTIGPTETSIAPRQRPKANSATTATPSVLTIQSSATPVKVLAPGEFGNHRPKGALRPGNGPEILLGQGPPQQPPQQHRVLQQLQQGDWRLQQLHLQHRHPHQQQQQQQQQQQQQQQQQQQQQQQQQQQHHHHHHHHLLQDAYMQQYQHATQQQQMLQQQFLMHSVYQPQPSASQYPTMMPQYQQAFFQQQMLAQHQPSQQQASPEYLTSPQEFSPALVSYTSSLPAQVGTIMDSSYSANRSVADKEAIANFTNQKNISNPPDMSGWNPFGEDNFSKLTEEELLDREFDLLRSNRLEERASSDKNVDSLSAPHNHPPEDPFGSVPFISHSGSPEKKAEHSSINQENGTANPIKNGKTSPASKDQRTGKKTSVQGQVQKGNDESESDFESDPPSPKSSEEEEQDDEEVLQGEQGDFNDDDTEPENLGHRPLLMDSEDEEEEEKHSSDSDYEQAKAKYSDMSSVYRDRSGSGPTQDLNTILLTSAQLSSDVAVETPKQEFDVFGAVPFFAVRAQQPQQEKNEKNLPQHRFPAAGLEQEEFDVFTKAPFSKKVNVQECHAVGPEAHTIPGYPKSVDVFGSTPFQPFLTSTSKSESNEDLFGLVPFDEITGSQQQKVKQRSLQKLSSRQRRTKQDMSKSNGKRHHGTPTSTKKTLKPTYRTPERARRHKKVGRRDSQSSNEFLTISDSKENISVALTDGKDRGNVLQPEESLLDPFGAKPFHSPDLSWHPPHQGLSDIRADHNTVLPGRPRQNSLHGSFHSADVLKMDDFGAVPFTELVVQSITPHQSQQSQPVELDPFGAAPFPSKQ

`COc1cc(N2CCC(OCC(=O)N[C@H](C(=O)N3C[C@H](O)C[C@H]3C(=O)N[C@@H](C)c3ccc(-c4scnc4C)cc3)C(C)(C)C)CC2)ccc1NC(=O)c1cccc(-c2ccn[nH]2)n1` was tested, and the Activity [1] was “Active”, the Activity [2] was “Active” and the Activity [3] was “Active”. The Activity [4] was “inactive”, the inhibition [5] was “Active” and the inhibition [6] was “Active”. For the same compound, the DC50 [7] was 3.3 nM, the inhibition [8] was 63% and the IC50 [9] was 1070 nM. For the same compound, the Activity (HBL1) was “Active”, the IC50 [10] was 443 nM and the IC50 [11] was 72 nM. The Activity (OCI-Ly10) was 170 nM, the %max [12] was 96% and the inhibition [13] was “inactive”.
